Experimental data as given in PMC12263422, “Cryo-EM structure of the human THIK-1 K2P K^+ channel reveals a lower Y gate regulated by lipids and anesthetics” (Nature Structural & Molecular Biology, 2025).
Where “and” joins values, the source holds several entries; their conditions need not be identical. Equal values may be shown once. Read-outs that look alike come from different tables or passages of the source.

Molecular target: T1, Human K2P13.1 THIK-1 (WT) (Homo sapiens, UniProt Q9HB14)
T1 construct: expressed in transfected cells; host or cells: Xenopus oocytes (mRNA injection)
T1 sequence (Q9HB14 1-408): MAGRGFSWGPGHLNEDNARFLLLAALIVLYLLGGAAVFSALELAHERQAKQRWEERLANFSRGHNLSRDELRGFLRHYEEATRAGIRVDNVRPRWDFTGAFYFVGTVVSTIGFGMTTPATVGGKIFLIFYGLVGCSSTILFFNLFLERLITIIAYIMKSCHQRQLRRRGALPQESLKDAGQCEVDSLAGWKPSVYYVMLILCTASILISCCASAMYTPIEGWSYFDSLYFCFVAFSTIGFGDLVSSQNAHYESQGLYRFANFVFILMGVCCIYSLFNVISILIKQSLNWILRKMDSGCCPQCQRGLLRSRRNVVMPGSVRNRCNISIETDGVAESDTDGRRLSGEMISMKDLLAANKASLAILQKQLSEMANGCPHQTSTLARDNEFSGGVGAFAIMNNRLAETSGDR
Assay: Macroscopic inside-out excised patch recordings from Xenopus oocytes expressing WT THIK-1; compounds applied to the intracellular side
Type: cell-based
Excerpt: Human K2P13.1 THIK-1 (GenBank accession number: NM_022054) and human K2P12.1 THIK-2 (NM_022055.1) were used in this study. For functional expression studies, the respective K^+ channel subtype coding sequences were subcloned into the oocyte expression vector pSGEM or the dual-purpose expression vector pFAW[41] and verified by sequencing. All mutant channels were obtained by site-directed mutagenesis and verified by sequencing. To increase surface expression and macroscopic currents, measurements of THIK-2 channels used a mutated ER retention motif, (R11A R12A R14A R15A R16A; THIK-2*)[20]. Vector DNA was linearized with NheI or MluI, and mRNA was synthesized in vitro using the SP6 or T7 AmpliCap Max High Yield Message Maker Kit (Cellscript, USA) or HiScribe T7 ARCA mRNA Kit (New England Biolabs).
Two-electrode voltage–clamp (TEVC) studies were performed in Xenopus oocytes. All animal use conformed to the Guide for the Care and Use of Laboratory Animals (NIH Publication 85–23), and all experiments using Xenopus toads were approved by the local ethics panels. Oocytes were stored at 17 °C in ND96 recording solution composed of (in mM): 96 NaCl, 2 KCl, 1.8 CaCl2, 1 MgCl2, 5 HEPES (pH 7.5 adjusted with NaOH and HCl), supplemented with Na-pyruvate (275 mg L^–1), theophylline (90 mg L^–1) and gentamicin (50 mg L^–1). Oocytes were injected with 1 ng mRNA for WT or mutant channels, and were incubated for 24–48 h at 17 °C. Two-electrode voltage clamp recordings were then performed as previously described[42],[43]. For macroscopic patch–clamp measurements, oocytes were obtained as described above incubated at 17 °C in a solution containing (mM): 54 NaCl, 30 KCl, 2.4 NaHCO3, 0.82 MgSO4 ×7 H2O, 0.41 CaCl2, 0.33 Ca(NO3)2 ×4 H2O and 7.5 TRIS (pH 7.4 adjusted with NaOH and HCl) for 1–4 days before use. Excised patch recordings in inside-out configuration conditions were performed at room temperature. Patch pipettes were made from thick-walled borosilicate glass GB 200TF-8P (Science Products), had resistances of 0.2–0.5 MΩ (tip diameter, 10–25 µm) and filled with a pipette solution (in mM): 120 KCl, 10 HEPES and 3.6 CaCl2 (pH 7.4 adjusted with KOH and HCl). Intracellular bath solutions and compounds were applied to the cytoplasmic side of excised patches for the various K^+ channels through a gravity flow multi-barrel pipette system. The intracellular solution had the following composition (in mM): 120 KCl, 10 HEPES, 2 EGTA and 1 pyrophosphate (pH adjusted with KOH and HCl). Currents were recorded with an EPC10 amplifier (HEKA Electronics) and sampled at 10 kHz or higher, with filtering set to 3 kHz (–3 dB) or higher, as appropriate for sampling rate. For measurements of GPCR activation, whole-cell currents were recorded for THIK-1 in transiently transfected HEK-293 cells. Cells were stimulated by a ramp protocol between −100 and +60 mV (holding potential, −80 mV). The pipette solution was composed of (in mM): 140 KCl, 2 MgCl2, 1 CaCl2, 2.5 EGTA and 10 HEPES (pH 7.3 adjusted with KOH and HCl). The extracellular bath solution had the following composition (in mM): 135 NaCl, 5 KCl, 2 MgCl2, 2 CaCl2, 10 glucose and 10 HEPES pH (pH 7.3 adjusted with NaOH and HCl). Oxotremorine M (Oxo-M) was added to extracellular bath solution to obtain the final concentration. Single-channel currents were recorded with an Axopatch 200B amplifier through a Digidata 1440A digitizer (Molecular Devices). Data were filtered at 2 kHz and recorded at a 200-kHz sampling rate with the program Clampex (Molecular Devices). Pipette solution and bath solution for cell-attached recordings contained (in mM): 140 KCl, 2 MgCl2, 1 CaCl2 and 10 HEPES (pH 7.4 adjusted with KOH and HCl). For inside-out recordings, the bath solution contained (in mM): 140 KCl, 2 MgCl2, 1 CaCl2 and 10 HEPES (pH 7.2 adjusted with KOH and HCl). All experiments were conducted at room temperature. […]

[1] = WT (unstimulated), individual recordings
[2] = WT, PIP2, individual recordings
[3] = WT, oleoyl-CoA, individual recordings

CCCCC[N+](CCCCC)(CCCCC)CCCCC [TPenA, tetrapentylammonium]
block of initial currents (0.5 mM TPenA, WT): ~ 80%
Normalized currents (THIK-1 WT (unstimulated), 0.01 µM TPenA): 1.00
Normalized currents (THIK-1 WT (unstimulated), 0.1 µM TPenA): 0.97
Normalized currents (THIK-1 WT (unstimulated), 1 µM TPenA): 0.94
Normalized currents (THIK-1 WT (unstimulated), 10 µM TPenA): 0.88
Normalized currents (THIK-1 WT (unstimulated), 15.6 µM TPenA): 0.89
Normalized currents (THIK-1 WT (unstimulated), 62.5 µM TPenA): 0.75
Normalized currents (THIK-1 WT (unstimulated), 100 µM TPenA): 0.71
Normalized currents (THIK-1 WT (unstimulated), 250 µM TPenA): 0.49
Normalized currents (THIK-1 WT (unstimulated), 1000 µM TPenA): 0.21
Normalized currents (THIK-1 WT (unstimulated), 4000 µM TPenA): 0.09
Normalized currents (THIK-1 WT (unstimulated), 5000 µM TPenA): 0.09
Normalized currents (TPenA 0.01 µM, THIK-1 WT (oleoyl-CoA, 5 µM)): 1
Normalized currents (TPenA 0.01 µM, THIK-1 WT (unstimulated)): 1.00
Normalized currents (TPenA 0.1 µM, THIK-1 WT (PIP2)): 1
Normalized currents (TPenA 0.1 µM, THIK-1 WT (oleoyl-CoA, 5 µM)): 0.87
Normalized currents (TPenA 0.1 µM, THIK-1 WT (unstimulated)): 0.97
Normalized currents (TPenA 1 µM, THIK-1 WT (PIP2)): 0.86
Normalized currents (TPenA 1 µM, THIK-1 WT (oleoyl-CoA, 5 µM)): 0.81
Normalized currents (TPenA 1 µM, THIK-1 WT (unstimulated)): 0.94
Normalized currents (TPenA 4 µM, THIK-1 WT (PIP2)): 0.54
Normalized currents (TPenA 4 µM, THIK-1 WT (oleoyl-CoA, 5 µM)): 0.48
Normalized currents (TPenA 10 µM, THIK-1 WT (unstimulated)): 0.88
Normalized currents (TPenA 15.6 µM, THIK-1 WT (PIP2)): 0.26
Normalized currents (TPenA 15.6 µM, THIK-1 WT (oleoyl-CoA, 5 µM)): 0.22
Normalized currents (TPenA 15.6 µM, THIK-1 WT (unstimulated)): 0.89
Normalized currents (TPenA 62.5 µM, THIK-1 WT (PIP2)): 0.1
Normalized currents (TPenA 62.5 µM, THIK-1 WT (oleoyl-CoA, 5 µM)): 0.09
Normalized currents (TPenA 62.5 µM, THIK-1 WT (unstimulated)): 0.75
Normalized currents (TPenA 100 µM, THIK-1 WT (unstimulated)): 0.71
Normalized currents (TPenA 250 µM, THIK-1 WT (PIP2)): 0.03
Normalized currents (TPenA 250 µM, THIK-1 WT (oleoyl-CoA, 5 µM)): 0.04
Normalized currents (TPenA 250 µM, THIK-1 WT (unstimulated)): 0.49
Normalized currents (TPenA 1000 µM, THIK-1 WT (PIP2)): 0.02
Normalized currents (TPenA 1000 µM, THIK-1 WT (oleoyl-CoA, 5 µM)): 0.02
Normalized currents (TPenA 1000 µM, THIK-1 WT (unstimulated)): 0.21
Normalized currents (TPenA 4000 µM, THIK-1 WT (PIP2)): 0.01
Normalized currents (TPenA 4000 µM, THIK-1 WT (oleoyl-CoA, 5 µM)): 0.02
Normalized currents (TPenA 4000 µM, THIK-1 WT (unstimulated)): 0.09
Normalized currents (TPenA 5000 µM, THIK-1 WT (unstimulated)): 0.09
IC50 (TPenA IC50, THIK-1 WT, individual recordings): 228 µM and 219 µM and 204 µM (2×) and 231 µM and 268 µM and 259 µM and 120 µM and 223 µM and 194 µM and 240 µM and 308 µM
IC50 (TPenA IC50, THIK-1 WT, mean): 225 µM
IC50 (TPenA IC50, intracellular application to excised patches, WT unstimulated): 225 ± 13 µM
τ of 1 mM TPenA block [1]: 14.000 s and 10.890 s and 8.250 s and 24.220 s and 9.660 s and 10.730 s and 11.070 s and 13.110 s and 12.070 s and 8.080 s and 8.510 s
τ of 1 mM TPenA release [1]: 76.730 s and 96.620 s and 52.570 s and 76.880 s and 103.780 s and 38.820 s and 101.050 s and 68.790 s and 74.350 s and 174.000 s and 73.800 s
τ of 1 mM TPenA block (WT (unstimulated), mean): 11.87 s
τ of 1 mM TPenA release (WT (unstimulated), mean): 85.22 s
τblock (kinetics of TPenA block) (WT unstimulated): 12 ± 1 s
τrelease (kinetics of TPenA release) (WT unstimulated): 85 ± 11 s
τ of 1 mM TPenA block [2]: 0.324 s and 0.375 s and 0.323 s and 0.215 s and 0.293 s
τ of 1 mM TPenA release [2]: 29.360 s and 29.550 s and 28.630 s and 28.550 s and 38.470 s and 25.420 s
τblock (WT, PIP2 activated): 0.31 ± 0.02 s
τrelease (WT, PIP2 activated): 30 ± 2 s
τ of 1 mM TPenA block (WT, PIP2 activated, mean): 0.31 s
τ of 1 mM TPenA release (WT, PIP2 activated, mean): 30.00 s
τblock (WT, oleoyl-CoA activated): 0.5 ± 0.1 s
τrelease (WT, oleoyl-CoA activated): 11 ± 1 s
τ of 1 mM TPenA block (WT, oleoyl-CoA activated, mean): 0.53 s
τ of 1 mM TPenA release (WT, oleoyl-CoA activated, mean): 10.85 s
τ of 1 mM TPenA block [3]: 0.330 s and 0.560 s and 0.270 s and 0.340 s and 0.440 s and 0.930 s and 0.380 s and 0.720 s and 0.750 s and 0.360 s
τ of 1 mM TPenA release [3]: 7.190 s and 6.440 s and 12.640 s and 12.180 s and 15.140 s and 8.860 s and 13.480 s
inhibition at 15.6 µM (read-out: inhibition with 15.6 µM TPenA, WT channel in PIP2): 74 ± 1%
inhibition at 15.6 µM (read-out: inhibition with 15.6 µM TPenA, WT channel in oleoyl-CoA): 78 ± 1%
inhibition at 15.6 µM (read-out: inhibition with 15.6 µM TPenA, WT channel, unstimulated): 11 ± 1%
